Here are results for 22 compounds from patent US8877745B2, “CCR2 receptor antagonists, method for producing the same, and use thereof as medicaments” (Boehringer Ingelheim International GmbH, priority 2010, dated 2014).

pKi: −log10 of the molar value.

T1 sequence (P41597 whole entry): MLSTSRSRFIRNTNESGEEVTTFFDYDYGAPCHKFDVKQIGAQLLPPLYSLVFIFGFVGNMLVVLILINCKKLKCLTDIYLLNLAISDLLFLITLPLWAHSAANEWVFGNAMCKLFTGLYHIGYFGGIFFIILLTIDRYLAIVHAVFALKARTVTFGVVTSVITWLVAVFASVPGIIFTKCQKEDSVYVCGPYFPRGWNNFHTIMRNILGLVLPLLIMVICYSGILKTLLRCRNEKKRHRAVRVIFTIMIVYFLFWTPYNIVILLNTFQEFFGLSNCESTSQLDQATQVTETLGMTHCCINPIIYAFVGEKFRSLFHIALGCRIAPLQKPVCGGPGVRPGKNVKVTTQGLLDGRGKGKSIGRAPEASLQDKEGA

This test addresses T1, CCR2 (Homo sapiens, UniProt P41597).
T1 construct: Membranes were prepared from THP-1 cells; endogenous in cells; host or cells: THP-1 (human acute monocytic leukaemia cells), membrane preparation
Kind of test: CCR2 receptor membrane binding assay ([125I]MCP-1, THP-1 cell membranes, SPA beads). The note with it: THP-1 membranes, [125I]MCP-1, bound radioactivity determined after 8 h; read-out: hKi. Put shortly:
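SPA competition binding using THP-1 membranes on WGA-PVT beads in 25 mM HEPES pH 7.2, 5 mM MgCl2, 0.5 mM CaCl2, 0.2% BSA, 1% DMSO final. [125I]MCP-1 (ca. 25000 cpm) as tracer; bound radioactivity counted after 8 h. Ki by iterative mass-action fitting.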
On to `Cc1c(C(=O)N2CCC(NC3CCOCC3)CC2)ncnc1N1CCc2ccc(C(F)(F)F)cc2C1` [Example 69r], for which the pKi was 8.15.
Take `COc1nc(C(=O)N2CCC(NC3CCOCC3F)CC2)c(C)c(N2CCc3ccc(C(F)(F)F)cc3C2)n1` (stereo not shown) [Example 69s]: the pKi is 8.10.
As to `COc1nc(C(=O)N2CCC(NC3CCOCC3)CC2)c(C)c(N2CCc3ccc(C(F)(F)F)cc3C2)n1` [Example 69w], the pKi is 8.30.
Take `CO[C@@H]1COCC[C@@H]1NC1CCN(C(=O)c2nc(C3CC3)nc(N3CCc4ccc(C(F)(F)F)cc4C3)c2C)CC1` [Example 69x]: the pKi is 9.15.
Consider `CO[C@@H]1COCC[C@@H]1NC1CCN(C(=O)c2ncnc(N3CCc4ccc(Br)cc4C3)c2C)CC1` [Example 69y], for which the pKi is 8.15.
With `CO[C@H]1COCC[C@H]1NC1CCN(C(=O)c2ncnc(N3CCc4ccc(Br)cc4C3)c2C)CC1` [Example 69z] the figure was 7.89; with `Cc1c(C(=O)N2CCN(C)CC2)ncnc1N1CCc2ccc(C(F)(F)F)cc2C1` [Example 70], 5.45; with `Cc1c(C(=O)N2CCN(C(C)C)CC2)ncnc1N1CCc2ccc(C(F)(F)F)cc2C1` [Example 71], 5.68.
In the case of `Cc1c(C(=O)N2CCC(N3CCC(O)CC3)CC2)ncnc1N1CCc2ccc(C(F)(F)F)cc2C1` [Example 72] it was 6.98.
In the case of `Cc1c(C(=O)N2CCC(N3CCCC3)CC2)ncnc1N1CCc2ccc(C(F)(F)F)cc2C1` [Example 73] it was 7.28; in that of `CCN(CC)C1CCN(C(=O)c2ncnc(N3CCc4ccc(C(F)(F)F)cc4C3)c2C)CC1` [Example 74], 6.26.
For the compound `CCN(CC)C1CCN(C(=O)c2ncnc(N3CCc4ccc(C(F)(F)F)cc4C3)c2C)C1` (stereo not shown) [Example 75], the pKi is 6.18.
In the case of `Cc1c(C(=O)N2CCCN(CCO)CC2)ncnc1N1CCc2ccc(C(F)(F)F)cc2C1` [Example 76], the pKi is 5.47.
With `Cc1c(C(=O)N2CCC(N3CCCC(O)C3)CC2)ncnc1N1CCc2ccc(C(F)(F)F)cc2C1` (stereo not shown) [Example 77] the figure was 6.39.
For `Cc1c(C(=O)N2CCC(C(N)=O)(N3CCCCC3)CC2)ncnc1N1CCc2ccc(C(F)(F)F)cc2C1` [Example 78], the pKi was 5.90.
In the case of `Cc1c(C(=O)N2CCC(N(C)C)CC2)ncnc1N1CCc2ccc(C(F)(F)F)cc2C1` [Example 79] it was 6.03; in that of `Cc1c(C(=O)N2CCC(N3CCCCC3)CC2)ncnc1N1CCc2ccc(C(F)(F)F)cc2C1` [Example 80], 7.00; in that of `Cc1c(C(=O)N2CCCN(C)CC2)ncnc1N1CCc2ccc(C(F)(F)F)cc2C1` [Example 81], 5.63.
With `Cc1c(C(=O)N2CCC(N3CCOCC3)CC2)ncnc1N1CCc2ccc(C(F)(F)F)cc2C1` [Example 82] the figure was 6.69; with `Cc1c(C(=O)N2CCC(N3CCC(c4cccc(C(=O)O)c4)CC3)CC2)ncnc1N1CCc2ccc(C(F)(F)F)cc2C1` [Example 83], 6.16.
In the case of `CO[C@H]1COCC[C@H]1N(C)C1CCN(C(=O)c2ncnc(N3CCc4ccc(C(F)(F)F)cc4C3)c2C)CC1` [Example 84] it was 7.39; in that of `CO[C@@H]1COCC[C@@H]1N(C)C1CCN(C(=O)c2ncnc(N3CCc4ccc(C(F)(F)F)cc4C3)c2C)CC1` [Example 85], 8.30.
